Test results as given in US20240271104A1, “COLONIZATION OF SURFACES WITH BIOLOGICAL CELLS” (Eberhard Karls Universität Tübingen Medizinische Fakultät, priority 2021, published 2024).

Assays:
Format in all cases: cell-based, human
[1] = test system: endothelial layer on HFMs; assay: Reactivity of the endothelial layer on HFMs to an inflammatory stimulus (qRT-PCR of adhesion molecules); conditions: 50 ng/mL TNF-α, 4 hours, mRNA normalized to GAPDH
Experimental: Endothelialized HFMs were incubated for 4 hours without or with 50 ng/mL tumor necrosis factor α (TNF-α, Sigma-Aldrich) in EGM™-2 endothelial cell growth medium without hydrocortisone. After incubation, HFMs were washed twice with DPBS and total RNA was isolated. Expression of the activation markers, endothelial leukocyte adhesion molecule 1 (E-selectin), vascular cell adhesion molecule 1 (VCAM-1) and intercellular adhesion molecule 1 (ICAM-1), was detected by qRT-PCR.
After 40 cycles, melting was performed.

HUVECs [2] = assay: PrestoBlue cell viability assay after metabolic labeling; conditions: 50 μM Ac4ManNAz 48 h
Experimental: The influence of metabolic labeling on the viability of HUVECs was investigated 48 hours after labeling with 50 µM Ac4ManNAz using the PrestoBlue assay (Invitrogen, Carlsbad, USA). For this purpose, 500 μL of 1× Presto Blue cell viability reagent was added to each well of a 6-well plate and incubated for 1.5 h at 37° C. The fluorescence intensity of 100 μL supernatant was measured in triplicate at an excitation wavelength of 530 nm and an emission wavelength of 600 nm using a multimode microplate reader (Mithras LB 940, Berthold Technologies, Bad Wildbad, Germany).

HUVECs [3] = assay: Metabolic labeling of HUVECs with azide groups, detection with DBCO-Sulfo-Cy3 by flow cytometry; conditions: 50 μM Ac4ManNAz 48 h, then 5 μM DBCO-Sulfo-Cy3 1 h
Experimental: To functionalize the cell surface of HUVECs with azide groups, 2×10^5 HUVECs per well of a 6-well plate were seeded and treated with or without 50 μM N-azidoacetylmannosamine-tetraacylated (Ac4ManNAz, Sigma Aldrich) in 2 ml medium for 48 h at 37° C. with 5% CO2. To detect the formed azido groups, the cells were washed with DPBS without Ca^2+/Mg^2+ and incubated with 5 μM DBCO-Sulfo-Cy3 (Jena Bioscience, Germany) in DPBS with Ca^2+/Mg^2+ for 1 h at 37° C. and 5% CO2. Cells were washed three times with 10 ml DPBS, detached with trypsin/EDTA (0.04%/0.03%) and centrifuged at 300×g for 5 min. The cell pellet was resuspended in 0.5 ml DPBS, and Cy3 labeling of 10,000 cells was analyzed by flow cytometry (FACS SCAN, BD, Heidelberg, Germany). In addition to the flow cytometric analyses, cells were stained for 30 minutes with ActinGreen™ 488 ReadyP-robes® reagent (Invitrogen) for the cytoskeleton and for 5 minutes with 0.2 μg/ml DAPI (Sigma Aldrich) to visualize the nuclei.

| Compound | E-selectin expression compared to non-stimulated endothelial layer [1] [fold] | ICAM-1 expression compared to non-stimulated endothelial layer [1] [fold] | VCAM-1 expression compared to non-stimulated endothelial layer [1] [fold] | effect on viability of HUVECs (HUVECs [2]) | Cy3-positive cells (N3 groups on the cell surface) (HUVECs [3]) |
| --- | --- | --- | --- | --- | --- |
| tumor necrosis factor α [TNF-α] | 199 | 162 | 328 |  |  |
| CC(=O)OC[C@H]1OC(OC(C)=O)[C@@H](NC(=O)CN=[N+]=[N-])[C@@H](OC(C)=O)[C@@H]1OC(C)=O (some centres unmarked) [Ac4ManNAz, N-azidoacetylmannosamine-tetraacylated] |  |  |  | no effect | about 98% |
